Source: ChEMBL document CHEMBL1208745, “6-Phenyl-1H-imidazo[4,5-c]pyridine-4-carbonitrile as cathepsin S inhibitors” (Bioorg Med Chem Lett, 2010)
The source made the active and inactive calls. The calls are words filed in the database; no cut-off is given here.

Tests used:
[1] = target: Cathepsin B (Homo sapiens) (UniProt P07858); experiment: Inhibition of human cathepsin B by fluorescence assay
[2] = target: T1, Cathepsin S (Homo sapiens, UniProt P25774); experiment: Inhibition of cathepsin S-mediated proteolytic cleavage of MHC2 associated invariant chain in human JY cells assessed as accumulation of lip10 by Western blot analysis; format: cell-based
T1 sequence (P25774 whole entry): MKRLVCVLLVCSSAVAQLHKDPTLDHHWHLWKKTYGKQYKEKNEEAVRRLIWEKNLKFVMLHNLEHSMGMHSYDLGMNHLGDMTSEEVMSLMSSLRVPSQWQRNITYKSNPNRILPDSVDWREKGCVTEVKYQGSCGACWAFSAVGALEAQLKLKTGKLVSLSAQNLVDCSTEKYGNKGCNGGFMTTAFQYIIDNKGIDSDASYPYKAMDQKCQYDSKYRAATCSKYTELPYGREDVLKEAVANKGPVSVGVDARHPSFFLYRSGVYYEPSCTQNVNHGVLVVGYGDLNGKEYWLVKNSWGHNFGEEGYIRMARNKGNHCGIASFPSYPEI

[3] = target: T2, Cathepsin K (Homo sapiens, UniProt P43235); experiment: Inhibition of human cathepsin K by fluorescence assay
T2 sequence (P43235 whole entry): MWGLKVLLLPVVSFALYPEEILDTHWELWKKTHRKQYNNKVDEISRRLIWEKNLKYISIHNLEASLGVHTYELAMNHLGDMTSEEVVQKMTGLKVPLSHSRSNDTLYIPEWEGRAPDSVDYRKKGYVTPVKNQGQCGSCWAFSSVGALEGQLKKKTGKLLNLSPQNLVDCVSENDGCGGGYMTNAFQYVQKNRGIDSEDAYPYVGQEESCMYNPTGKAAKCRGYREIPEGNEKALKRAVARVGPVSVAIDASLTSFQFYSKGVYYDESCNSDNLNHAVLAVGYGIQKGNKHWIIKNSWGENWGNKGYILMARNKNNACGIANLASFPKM

[4] = target: Procathepsin L (Homo sapiens) (UniProt P07711); experiment: Inhibition of human cathepsin L by fluorescence assay
Chain of Procathepsin L (Homo sapiens) (P07711 114-333 limits assumed): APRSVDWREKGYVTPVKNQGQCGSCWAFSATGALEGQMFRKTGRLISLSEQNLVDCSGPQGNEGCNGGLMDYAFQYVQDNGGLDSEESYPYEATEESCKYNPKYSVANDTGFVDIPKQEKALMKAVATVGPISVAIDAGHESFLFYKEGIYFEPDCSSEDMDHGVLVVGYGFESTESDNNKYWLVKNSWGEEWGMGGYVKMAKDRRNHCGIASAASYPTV

[5] = target: T1, Cathepsin S; experiment: Inhibition of human cathepsin S by fluorescence assay
[6] = Plasma clearance in Wistar rat at 2 mg/kg, iv and 10 mg/kg, po; format: ADME, organism-based
[7] = Volume of distribution at steady state in Wistar rat at 2 mg/kg, iv and 10 mg/kg, po; format: ADME, organism-based; conditions: in vivo, read-out: Vdss
[8] = target: T3, Cathepsin S (Mus musculus, UniProt O70370); experiment: Inhibition of mouse cathepsin S by fluorescence assay
T3 sequence (O70370 whole entry): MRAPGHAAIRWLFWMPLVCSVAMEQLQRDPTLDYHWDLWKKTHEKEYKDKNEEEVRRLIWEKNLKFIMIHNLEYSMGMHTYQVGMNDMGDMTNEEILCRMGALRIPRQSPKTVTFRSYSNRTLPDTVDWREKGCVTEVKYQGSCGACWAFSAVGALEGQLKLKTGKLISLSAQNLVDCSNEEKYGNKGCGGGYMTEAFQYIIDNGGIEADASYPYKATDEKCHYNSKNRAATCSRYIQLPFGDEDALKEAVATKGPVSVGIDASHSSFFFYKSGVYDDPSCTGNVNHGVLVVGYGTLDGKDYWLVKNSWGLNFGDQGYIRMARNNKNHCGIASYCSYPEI

[9] = Oral bioavailability in Wistar rat at 10 mg/kg; format: ADME, organism-based; conditions: in vivo
[10] = Chemical stability of the compound assessed as half life at 1.24 mM at pH 7.5 by nitrile war-head stability assay in presence of GSH; format: physicochemical
[11] = Chemical stability of the compound assessed as half life at 1.25 mM at pH 7.5 by nitrile war-head stability assay in presence of GSH; format: physicochemical
[12] = target: T3, Cathepsin S; experiment: Inhibition of cathepsin S-mediated proteolytic cleavage of MHC2 associated invariant chain in mouse splenocytes assessed as accumulation of lip10 by Western blot analysis; format: cell-based
[13] = tested on: Mus musculus; experiment: Induction of Lip10 accumulation in C57/BL6 mouse spleen at 0.3 mg/kg, po after 4 hrs by Western blot analysis; format: functional, organism-based; set-up: dose 0.3 mg/kg; conditions: C57Bl/6
[14] = Ratio of drug level in spleen to plasma in C57/BL6 mouse at 0.3 mg/kg, po; format: ADME, organism-based, C57Bl/6; set-up: dose 0.3 mg/kg, route oral
[15] = Chemical stability of the compound assessed as half life at 1.15 mM at pH 7.5 by nitrile war-head stability assay in presence of GSH; format: physicochemical

Row | Compound | inhibition [1] | IC50 [3] | inhibition [4] | IC50 [5] | other results
1 | CN1CCN(CCCOc2ccc(-c3cc4c(ncn4C)c(C#N)n3)cc2C(F)(F)F)CC1 | inactive | 468 nM | inactive |  | IC50 [2]: 106 nM
2 | Cn1cnc2c(C#N)nc(-c3ccc(OCc4ccccn4)c(C(F)(F)F)c3)cc21 | inactive | 2290 nM | inactive | 20 nM | clearance [6]: 327 mL/min/kg; Vd [7]: 0.7 L/kg; IC50 [8]: 2.5 nM; bioavailability [9]: 54%; IC50 [2]: 853 nM
3 | Cn1cnc2c(C#N)nc(-c3ccc(OCc4ccncc4)c(C(F)(F)F)c3)cc21 | inactive | > 10000 nM | inactive | 10 nM | 
4 | CN1CCN(CCCOc2ccc(-c3cccc(C#N)n3)cc2C(F)(F)F)CC1 |  |  |  |  | half-life at 1240 µM [10]: > 100 h
5 | Cn1cnc2c(C#N)nc(-c3ccc(OCCCN4CCCC4)c(C(F)(F)F)c3)cc21 | inactive | 871 nM | inactive | 28 nM | IC50 [2]: 89 nM
6 | Cn1cnc2c(C#N)nc(-c3ccc(OCc4cccnc4)c(C(F)(F)F)c3)cc21 | inactive | > 10000 nM | inactive | 12.6 nM | 
7 | Cn1cnc2c(C#N)nc(-c3ccc(OCC4CCNCC4)c(C(F)(F)F)c3)cc21 | inactive | 240 nM | inactive | 14.1 nM | 
8 | Cn1cnc2c(C#N)nc(-c3ccc(OCCN4CCNC(=O)C4)c(C(F)(F)F)c3)cc21 | inactive | 1170 nM | inactive | 7.8 nM | 
9 | Cc1cccc(CCOc2ccc(-c3cc4c(ncn4C)c(C#N)n3)cc2C(F)(F)F)n1 | inactive | 2040 nM | inactive | 11 nM | IC50 [2]: 267 nM
10 | Cn1ccc2c(C#N)nc(-c3ccc(OCCN4CCCC4=O)c(C(F)(F)F)c3)cc21 |  | > 10000 nM |  | 661 nM | 
11 | CCN1CCN(CCCOc2ccc(-c3cc4c(ncn4C)c(C#N)n3)cc2C(F)(F)F)CC1 | inactive | 331 nM | inactive | 7.2 nM | clearance [6]: 28 mL/min/kg; half-life at 1250 µM [11]: > 100 h; Vd [7]: 2 L/kg; IC50 [8]: 2.6 nM; IC50 [12]: 6.5 nM; bioavailability [9]: 9%; Activity [13]: Active; IC50 [2]: 63 nM; Kp [14]: 50
12 | Cn1cnc2c(C#N)nc(-c3ccc(OC4CCNCC4)c(C(F)(F)F)c3)cc21 | inactive | 891 nM | inactive | 316 nM | 
13 | CCOc1ccc(-c2cc3c(ncn3CCCN3CCOCC3)c(C#N)n2)cc1C(F)(F)F |  | 513 nM |  | 35 nM | 
14 | CN1CCN(CCCOc2ccc(-c3ccnc(C#N)n3)cc2C(F)(F)F)CC1 |  |  |  |  | half-life at 1150 µM [15]: < 0.25 h
15 | N#Cc1nc(-c2cccc(C(F)(F)F)c2)cc2nc[nH]c12 |  | 2000 nM |  | 1050 nM | 
16 | CCOc1ccc(-c2cccc(C#N)n2)cc1C(F)(F)F | inactive |  | inactive |  | 
17 | CCOc1ccc(-c2cc3c(ncn3CCN3CCOCC3)c(C#N)n2)cc1C(F)(F)F |  | 1660 nM |  | 37 nM | IC50 [2]: 10000 nM

More lines, main results first:

Row | inhibition [1] | IC50 [3] | inhibition [4] | IC50 [5] | Compound | other results
18 | inactive | 8310 nM | inactive | 25 nM | CCOc1ccc(-c2cc3[nH]cnc3c(C#N)n2)cc1C(F)(F)F | 
19 |  | 270 nM |  | 27 nM | CCOc1ccc(-c2cc3c(ncn3CCCN(C)C)c(C#N)n2)cc1C(F)(F)F | IC50 [2]: 260 nM
20 | inactive | > 10000 nM | inactive | 105 nM | CCNc1ccc(-c2cc3[nH]cnc3c(C#N)n2)cc1C(F)(F)F | 
21 | inactive | 2510 nM | inactive | 7.8 nM | Cn1cnc2c(C#N)nc(-c3ccc(OCCN4CCCC4=O)c(C(F)(F)F)c3)cc21 | IC50 [2]: 1420 nM
22 | inactive | 776 nM | inactive | 41 nM | CN(C)CCCOc1ccc(-c2cc3c(ncn3C)c(C#N)n2)cc1C(F)(F)F | clearance [6]: 10 mL/min/kg; Vd [7]: 58 L/kg; IC50 [8]: 2.6 nM; bioavailability [9]: 58%; IC50 [2]: 84 nM
23 | inactive |  | inactive |  | CCCOc1ccc(-c2cc3[nH]cnc3c(C#N)n2)cc1C(F)(F)F | 
24 | inactive | 178 nM | inactive | 8.3 nM | Cn1cnc2c(C#N)nc(-c3ccc(OCCC4CCNCC4)c(C(F)(F)F)c3)cc21 | IC50 [2]: 9 nM
25 | inactive | > 10000 nM | inactive | 3240 nM | CC(=O)Nc1ccc(-c2cc3[nH]cnc3c(C#N)n2)cc1C(F)(F)F | 
26 | inactive | 5890 nM | inactive | 209 nM | CN(C)CCOc1ccc(-c2cc3c(ncn3C)c(C#N)n2)cc1C(F)(F)F | 
27 | inactive | 3160 nM | inactive | 71 nM | Cn1cnc2c(C#N)nc(-c3ccc(CCO)c(C(F)(F)F)c3)cc21 | 
28 | inactive | 2690 nM | inactive | 63 nM | N#Cc1nc(-c2ccc(OCCCO)c(C(F)(F)F)c2)cc2[nH]cnc12 | 
29 | inactive | > 10000 nM | inactive | 676 nM | N#Cc1nc(-c2ccc(OCc3ccccc3)c(C(F)(F)F)c2)cc2[nH]cnc12 | 
30 |  | 447 nM |  | 32 nM | CCOc1ccc(-c2cc3c(ncn3CCN(C)C)c(C#N)n2)cc1C(F)(F)F | IC50 [2]: 854 nM
31 | inactive |  | inactive |  | N#Cc1nc(-c2cccc(C(F)(F)F)c2)cc2[nH]cnc12 | 
32 | inactive | 1260 nM | inactive | 40 nM | CCOc1ccc(-c2cc3c(ncn3C)c(C#N)n2)cc1C(F)(F)F | 
33 | inactive | 1070 nM | inactive | 24 nM | Cn1cnc2c(C#N)nc(-c3ccc(CCCO)c(C(F)(F)F)c3)cc21 | 
34 | inactive |  | inactive |  | CCOc1ccc(-c2nc(C#N)c3nc[nH]c3n2)cc1C(F)(F)F | 
35 |  | 7760 nM |  | 200 nM | CCCOc1ccc(-c2cc3nc[nH]c3c(C#N)n2)cc1C(F)(F)F | 
36 | inactive | 8510 nM | inactive | 339 nM | COc1ccc(-c2cc3[nH]cnc3c(C#N)n2)cc1C(F)(F)F | 
37 | inactive | 2820 nM | inactive | 145 nM | N#Cc1nc(-c2ccc(OCCO)c(C(F)(F)F)c2)cc2[nH]cnc12 | 
